In this assay the target is T1, Choline trimethylamine-lyase (UniProt A0AAJ0YC41).
T1 sequence (A0AAJ0YC41 whole entry): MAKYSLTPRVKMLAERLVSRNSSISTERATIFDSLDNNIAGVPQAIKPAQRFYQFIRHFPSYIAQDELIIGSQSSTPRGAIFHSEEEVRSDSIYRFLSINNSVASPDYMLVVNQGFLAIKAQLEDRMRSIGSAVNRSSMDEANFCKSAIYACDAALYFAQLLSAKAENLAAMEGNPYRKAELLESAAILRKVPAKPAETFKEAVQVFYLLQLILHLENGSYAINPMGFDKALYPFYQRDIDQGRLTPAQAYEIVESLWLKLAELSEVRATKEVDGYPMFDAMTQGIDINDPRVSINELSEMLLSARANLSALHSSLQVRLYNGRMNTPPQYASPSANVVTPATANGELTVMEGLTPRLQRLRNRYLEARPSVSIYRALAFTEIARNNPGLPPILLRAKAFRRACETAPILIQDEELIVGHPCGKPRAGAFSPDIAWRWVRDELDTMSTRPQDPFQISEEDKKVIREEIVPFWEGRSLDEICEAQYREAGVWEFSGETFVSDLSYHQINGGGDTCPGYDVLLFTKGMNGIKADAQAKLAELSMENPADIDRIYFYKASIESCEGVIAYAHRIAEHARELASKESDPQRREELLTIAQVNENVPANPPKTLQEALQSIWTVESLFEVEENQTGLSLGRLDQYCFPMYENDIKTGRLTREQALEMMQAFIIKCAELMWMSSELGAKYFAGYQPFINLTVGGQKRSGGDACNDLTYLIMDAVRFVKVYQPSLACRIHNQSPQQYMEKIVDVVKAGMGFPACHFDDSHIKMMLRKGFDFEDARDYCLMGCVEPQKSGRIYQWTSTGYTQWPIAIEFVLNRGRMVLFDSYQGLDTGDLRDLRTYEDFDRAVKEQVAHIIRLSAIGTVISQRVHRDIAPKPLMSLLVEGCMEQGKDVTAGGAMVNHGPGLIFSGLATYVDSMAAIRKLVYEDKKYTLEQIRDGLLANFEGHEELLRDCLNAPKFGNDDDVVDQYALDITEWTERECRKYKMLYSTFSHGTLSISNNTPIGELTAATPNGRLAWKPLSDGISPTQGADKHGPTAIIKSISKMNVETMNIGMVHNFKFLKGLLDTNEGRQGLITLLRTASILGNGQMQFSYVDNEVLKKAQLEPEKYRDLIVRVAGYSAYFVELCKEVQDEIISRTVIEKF
Nature of the assay: In Vitro TMA Inhibition. How it is done: Choline TMA lyase enzymatic activity assays were conducted to measure the conversion of isotope-labeled d9-choline to d9-TMA. Upon thawing an aliquot of frozen clarified lysate on ice and gentle mixing, clarified lysate was diluted to 5 mg/mL in lysis buffer and the necessary co-factors were added (final concentration: 1 mM SAM, 10 mM NaDT, and 2 mM NADH). Potential inhibitor compounds (typically dissolved in H2O) were serially diluted (10-fold) and added to individual reaction mixtures (done in triplicate). The mixture was then allowed to incubate for at least 15 minutes at 22° C. before the addition of substrate (300 μM final d9-choline) to initiate the reaction, which was carried out for 2 hours at room temperature (22° C.) in the dark in gas tight sealed reaction vials. The reactions were quenched with the addition of 200 μL of 1 M NaOH and 0.5 μM of the internal standard ([13C3 15N1]TMA), vortexing and placement in ice. d9-TMA production was quantified using mass spectrometry by measuring the peak area ratio of the precursor to product ion transition of d9-TMA (m/z 69→49) to the internal standard [13C3 15N1]TMA (m/z 64→47).

What is called IC50 is the concentration that inhibits the measured activity by half. As to `C[N+](C)(CF)CCOC(=O)c1ccc(O)cc1` [US20260001833, Compound 3], it took 3.6 µM to reach half-maximal inhibition (IC50).

For the origin of these results see BindingDB's records for patent US20260001833 (The Cleveland Clinic Foundation, 2026).
